The numbers were not newly measured in US11622958B2, “Bifunctional prodrugs” (GEORG-AUGUST-UNIVERSITÄT GÖTTINGEN STIFTUNG ÖFFENTLICHEN …, priority 2015, dated 2023), which cites them from elsewhere.

Assay in series [1]: not given
The source holds these as a separate data set.

Structures are written as SMILES.

In the case of `COc1c(O)c2c(c3cc(C(=O)N4CCc5c4c(O)c(OC)c4[nH]c(C(=O)N6CC7CC78C6=CC(=O)c6[nH]cc(C)c68)cc54)[nH]c13)CCN2C(N)=O` (centres unmarked) [CC-1065], the IC50 is 0.02 nM. In addition, in series [1], the “hepatotoxicity in animal experiments” value is “delayed lethal hepatotoxicity”.
